Assay results taken from paper PMC6856805, “Environmental Risk Assessment for the Active Pharmaceutical Ingredient Mycophenolic Acid in European Surface Waters” (Environmental Toxicology and Chemistry, 2019).

Experiments:
[1] = River sediment/water fate test (US FDA Guideline 3.11) with 14C-MPM; conditions: all systems and dosings
Protocol: A river sediment/water fate test with two different ^14C-MPMs (one carboxyl-^14C-labelled, the other morpholine-^14C-labelled) was commissioned in 1994 by Syntex according to US FDA Guideline 3.11 in compliance with GLP (Yan 1995). Both carboxyl-^14C-labelled and morpholine-^14C-labelled MPM were tested separately for biodegradability in river water and sediment at dosing concentrations of 1 and 5 mg MPM/L, in parallel test set-ups in the dark at 21±1 °C over 64 days. Air was drawn in flow-through systems first through a 2 N KOH vessel to remove natural CO2, then through the test vessel and subsequently through two sequential 2 N KOH traps for ^14CO2 capture. Samples from the latter traps were taken for duplicate ^14CO2 analysis by LSC on days 1, 2, 3, 7, 14, 21, 28, 35, 49 and 64. Test medium samples for HPLC analysis were taken on days 0.01 (15 min after dosing), 1, 3, 7, 14, 21, 35, 49 and 64. Sediment samples were taken at the end for combustion and ^14CO2 analysis.

[2] = OECD test guideline 301F ready biodegradability test
[3] = system: humans; experiment: Derivation of acceptable daily exposure (ADE); parameters: species or system human
Protocol: Similarly, potential risk for humans from secondary poisoning is assessed by using the acceptable daily exposure (ADE) value for MPA (T. Pfister, unpublished data), which considers toxicological data as well as human experience and covers all routes of uptake, including sensitive subpopulations, over 365 d/annum, with the combined worst‐case uptake through drinking water and fish. No removal of MPA in drinking water production is assumed, but a default intake of 2 L water and 115 g fish/person and day is assumed (European Commission 2011; Murray‐Smith et al. 2012). This combined uptake is then compared with the ADE.
The ADE was derived based on the available nonclinical and clinical data, with the critical effects identified as 1) immunosuppression and secondary effects thereof and 2) teratogenicity; in addition, the relevance of positive results in genotoxicity tests was assessed (T. Pfister, unpublished data). Based on the NOAEL of 2 mg/kg body weight/d in the 12‐mo oral toxicity study in the rat, an ADE was derived by multiplying this NOAEL by a default body weight of 60 kg for humans and dividing by adjustment factors, namely, 6.2 for extrapolation from rats to humans, 10 for variability between individuals, 1 for study duration of 1 yr for rodents, 5 for severity of systemic toxicity (hematopoiesis, immunotoxicity), and 3 for use of an established NOAEL instead of an NOEL; this derivation results in a first ADE of 0.1 mg MPM/60‐kg person/d. […] The weak clastogenic potential observed at higher doses was considered to be irrelevant at these exposure levels. Because the first ADE was lower than, and therefore also protective of, the second, 0.1 mg MPM/60‐kg person/d was selected as the ADE. Stoichiometrically, this ADE for MPM corresponds to 0.0739 mg MPA/d, which was rounded to 0.075 mg or 75 µg MPA/d. The MTDI for an otter was derived by normalizing the ADE for a 60‐kg human to the otter with a default body mass of 10 kg, resulting in an MTDI of 0.0125 mg or 12.5 µg MPA/10‐kg otter/d.

[4] = parameters: method as in T. Pfister, unpublished data; conditions: ref T. Pfister, unpublished data, cited from earlier work
[5] = system: mice; parameters: method as in T. Pfister, unpublished data; conditions: oral, 104 wk at 25, 75, or 180 mg/kg body weight/d, ref T. Pfister, unpublished data; cited from earlier work
[6] = system: rats; parameters: method as in T. Pfister, unpublished data; conditions: at least 104 wk at 3, 7, or 15 mg/kg body weight/d, ref T. Pfister, unpublished data; cited from earlier work
[7] = system: rats; parameters: method as in T. Pfister, unpublished data; conditions: oral, ref T. Pfister, unpublished data; cited from earlier work
[8] = system: rabbits; parameters: method as in T. Pfister, unpublished data; conditions: oral, ref T. Pfister, unpublished data; cited from earlier work
[9] = system: lymphocyte and erythrocyte systems; parameters: method as in T. Pfister, unpublished data; conditions: ref T. Pfister, unpublished data; cited from earlier work
[10] = system: mice with large cell lymphoma; parameters: method as in T. Pfister, unpublished data; conditions: ref T. Pfister, unpublished data; cited from earlier work
[11] = parameters: method as in Lee et al. 1990; Shipkova et al. 2005; conditions: in the liver and intestine; ref Lee et al. 1990; Shipkova et al. 2005; cited from earlier work
[12] = system: rat; conditions: in vivo, po; cited from earlier work
[13] = system: rats; conditions: cited from earlier work
[14] = OECD test guideline 314B activated sludge biodegradation simulation test
Description: Mineralization comprises evolved CO2 (detected in the traps) as well as CO2 dissolved in the sludge. The latter was highest at day 2 and decreased afterward, whereas the amount of evolved CO2 increased continuously until the end of the study. […] At no time point was a noteworthy amount of radioactivity (>2% iRR throughout the test period) detected in the liquor after extraction. Radioactivity in the solids extract was highest at day 0 (5.5% iRR) and decreased afterward to 0.3% iRR after 28 d.
Based on this k biodeg and physicochemical properties for MPA, SimpleTreat 4.0 (Struijs 2015) calculated a removal of 12% in STPs, mostly through biodegradation (0.27% in the primary settler and 11.5% in the aeration tank), with a small fraction of 0.13% adsorbed to sludge, in agreement with the OECD test guideline106 (Organisation for Economic Co‐operation and Development 2000) adsorption results mentioned in the previous paragraph (V. Halász‐Laky, unpublished data). […] A high degradation rate is supported by data from Franquet‐Griell et al. (2017b), who measured STP influents and effluents and compared solid phase extraction and macroporous ceramic passive samplers in Spain. […]

[15] = system: D. magna; parameters: method as in FASS 2018; conditions: OECD 202; ref FASS 2018; cited from earlier work
[16] = system: Cyprinus carpio; parameters: method as in FASS 2018; conditions: OECD 203; ref FASS 2018; cited from earlier work
[17] = parameters: method as in FASS 2018; conditions: OECD 209; ref FASS 2018; cited from earlier work

COc1c(C)c2c(c(O)c1C/C=C(\C)CCC(=O)OCCN1CCOCC1)C(=O)OC2 [MPM, mycophenolate mofetil]
time to full primary degradation [1]: ≤ 7 days | inhibition of activated sludge activity ([2]; nominal 100 mg MPM/L): no inhibition | ready biodegradability result ([2]; nominal 100 mg/L): primary degradation by HPLC without oxygen uptake | first ADE (selected as the ADE) ([3]; from rat 12‐mo NOAEL): 0.1 mg MPM/60‐kg person/d | second ADE ([3]; from rat teratogenicity NOEL): 0.19 mg MPM/60‐kg person/d | clastogenicity ([4]; extended exposure, only at highly cytotoxic dose levels): possesses a clastogenic potential | point mutations or primary DNA damage ([4]; presence or absence of metabolic activation): did not induce point mutations or primary DNA damage | carcinogenicity [5]: not carcinogenic | carcinogenicity [6]: not carcinogenic | no‐observed‐effect level (NOEL) for teratogenic changes [7]: 2 mg/kg body weight/d | no‐observed‐effect level (NOEL) for teratogenic changes [8]: 30 mg/kg body weight/d | in vitro antitumour effects [9]: in vitro antitumour effects | survival times [10]: prolonged survival times | hydrolysis of prodrug [11]: rapidly and fully hydrolyzed to MPA | no‐observed‐adverse‐effect level (NOAEL) [12]: 2 mg/kg body weight/d | dose causing malformations in the pups in the absence of maternal toxicity ([13]; highest dose, oral, rats, ref T. Pfister, unpublished data): 4.5 mg/kg body weight/d | NOAEL, female fertility and reproduction study ([13]; rat, in vivo, po): 1.5 mg/kg body weight/d | effect on fertility ([13]; rats, oral, ref T. Pfister, unpublished data): no effect on fertility

COc1c(C)c2c(c(O)c1C/C=C(\C)CCC(=O)O)C(=O)OC2 [^14C‐MPA, Mycophenolic acid, [carboxyl‐14C]]
degradation in activated sludge [14]: > 80%

COc1c(C)c2c(c(O)c1C/C=C(\C)CCC(=O)[O-])C(=O)OC2.[Na+] [sodium‐MPA]
acute daphnid EC50 [15]: > 100 µg/mL | acute fish 50% lethal concentration (LC50) [16]: > 100 µg/mL | 3‐h EC50, respiration inhibition [17]: 2213 µg/mL | EC10, respiration inhibition [17]: 69 µg/mL
